Drawing on ChEMBL document CHEMBL4041522, “Comprehensive review on various strategies for antimalarial drug discovery” (2017), this text covers Time for one molecule.

What all share (assay type): functional
Test [1] in a line: In vivo antiparasitic activity against Toxoplasma sp. assessed as parasite clearance time.
Test [2] relates to Plasmodium. The test can be described thus: In vivo antiparasitic activity against Plasmodium sp. assessed as fever clearance time.
Test [3] relates to Plasmodium. The test can be described thus: In vivo antiparasitic activity against Plasmodium sp. assessed as parasite clearance time.
Test [4] in a line: In vivo antiparasitic activity against Toxoplasma sp. assessed as fever clearance time.
Test [5] in a line: In vivo antiparasitic activity against Pneumocystis sp. assessed as fever clearance time.
The nature of test [6]: In vivo antiparasitic activity against Pneumocystis sp. assessed as parasite clearance time.
Test [7] is described as follows: In vivo antiparasitic activity against Babesia sp. assessed as fever clearance time.
Test [8] is described as follows: In vivo antiparasitic activity against Babesia sp. assessed as parasite clearance time.

Turning to `CCC[C@@H]1C[C@@H](C(=O)N[C@@H]([C@H]2O[C@H](SC)[C@H](O)[C@@H](O)[C@H]2O)[C@H](C)Cl)N(C)C1` [CLINDAMYCIN], the Time in test [1] lay in the range of 4 to 6 days; in the test on Plasmodium [2], 3 to 5 days; in the test with Plasmodium [3] it was 4 to 6 days; in test [4], 3 to 5 days; in test [5] it was 3 to 5 days; in test [6], 4 to 6 days. In addition, the Time in test [7] was 3 to 5 days; in test [8], 4 to 6 days.
